The NIST ThermoML archive (doi:10.1021/je200121f)
Numbers after ± are expanded uncertainties.

How the values were obtained:
[1] = xn = mol fraction of the nth substance listed; settings: for surface tension liquid-gas: Ring tensiometer; for viscosity / speed of sound / mass density: 101 kPa, Liquid; for viscosity: Capillary tube (Ostwald / Ubbelohde) method; for speed of sound: Sing-around technique in a fixed-path interferometer; for mass density: Vibrating tube method
[2] = refractive index (Na D-line) (dimensionless); xn = mol fraction of the nth substance listed; settings: 101 kPa, Liquid, Standard Abbe refractometry

CC(O)CNCC(C)O (stereo not given) [N-(2-hydroxypropyl)-2-hydroxy-1-propanamine] + CN1CCCC1=O
Settings	mass density, [1] [kg/m3]	refractive index, [2]	speed of sound, [1] [m/s]	surface tension liquid-gas, [1] [mN/m]	viscosity, [1] [mPa·s]
293.15 K, x2 = 0.7804	1021.9 ± 0.5	1.4675 ± 0.0006	1535.6 ± 3	39.7 ± 0.6	4.857 ± 0.058
293.15 K, x2 = 0.8882	1026.8 ± 0.5	1.4682 ± 0.0006	1548.8 ± 2.9	41.3 ± 0.6	2.943 ± 0.039
303.15 K, x2 = 0.4695	1006 ± 0.6	1.4608 ± 0.0006	1483.8 ± 3.1	37.1 ± 0.6	20.25 ± 0.3
303.15 K, x2 = 0.5721	1007.3 ± 0.6	1.4616 ± 0.0006	1486.6 ± 3.1	37.6 ± 0.6	10.57 ± 0.18
303.15 K, x2 = 0.6754	1010.8 ± 0.5	1.4623 ± 0.0006	1494.7 ± 3	38.3 ± 0.6	6.229 ± 0.092
303.15 K, x2 = 0.7804	1013.4 ± 0.5	1.4635 ± 0.0006	1499.4 ± 3	39 ± 0.6	3.694 ± 0.049
303.15 K, x2 = 0.8882	1018.2 ± 0.5	1.4648 ± 0.0006	1511.9 ± 2.9	40 ± 0.6	2.371 ± 0.028
313.15 K, x2 = 0.2764	993.1 ± 0.7	1.4558 ± 0.0006	1443.5 ± 3.2	36 ± 0.6	38.27 ± 0.59
313.15 K, x2 = 0.3733	994.5 ± 0.7	1.4563 ± 0.0006	1445 ± 3.2	36.2 ± 0.6	21.14 ± 0.37
313.15 K, x2 = 0.4695	997.8 ± 0.6	1.4567 ± 0.0006	1450.8 ± 3.1	36.7 ± 0.6	11.24 ± 0.2
313.15 K, x2 = 0.5721	998.9 ± 0.6	1.4576 ± 0.0006	1453.3 ± 3.1	37.2 ± 0.6	7.051 ± 0.1
313.15 K, x2 = 0.6754	1002.3 ± 0.5	1.4582 ± 0.0006	1460.3 ± 3	37.9 ± 0.6	4.495 ± 0.061
313.15 K, x2 = 0.7804	1004.8 ± 0.5	1.4594 ± 0.0006	1463.7 ± 3	38.5 ± 0.6	2.89 ± 0.036
313.15 K, x2 = 0.8882	1009.4 ± 0.5	1.4607 ± 0.0006	1474.9 ± 2.9	39.5 ± 0.6	1.943 ± 0.022
323.15 K, x2 = 0	984.1 ± 0.9	1.4512 ± 0.0008	1420.3 ± 3.4	34.5 ± 0.6	125.73 ± 3.3
323.15 K, x2 = 0.1049	984 ± 0.8	1.451 ± 0.0007	1414.2 ± 3.3	34.9 ± 0.6	61.14 ± 1.4
323.15 K, x2 = 0.1898	984.4 ± 0.7	1.4511 ± 0.0007	1411.8 ± 3.2	35.1 ± 0.6	35.41 ± 0.65
323.15 K, x2 = 0.2764	985.1 ± 0.7	1.452 ± 0.0007	1412.2 ± 3.2	35.1 ± 0.6	20.93 ± 0.41
323.15 K, x2 = 0.3733	986.4 ± 0.6	1.4524 ± 0.0006	1413 ± 3.1	35.3 ± 0.6	12.67 ± 0.23
323.15 K, x2 = 0.4695	988.2 ± 0.6	1.4528 ± 0.0006	1415.4 ± 3.1	36 ± 0.6	7.412 ± 0.11
323.15 K, x2 = 0.5721	990.6 ± 0.6	1.4535 ± 0.0006	1419.6 ± 3.1	36.5 ± 0.6	5.022 ± 0.069
323.15 K, x2 = 0.6754	993.5 ± 0.5	1.4541 ± 0.0006	1424.3 ± 3	37.1 ± 0.6	3.42 ± 0.043
323.15 K, x2 = 0.7804	996.8 ± 0.5	1.4553 ± 0.0006	1428.6 ± 3	37.7 ± 0.6	2.33 ± 0.027
323.15 K, x2 = 0.8882	1000.7 ± 0.5	1.4565 ± 0.0006	1438.7 ± 2.9	38.7 ± 0.6	1.631 ± 0.018

C[C@H](O)CN [(2S)-1-amino-2-propanol] + CN1CCCC1=O
Settings	mass density, [1] [kg/m3]	refractive index, [2]	speed of sound, [1] [m/s]	surface tension liquid-gas, [1] [mN/m]	viscosity, [1] [mPa·s]
293.15 K, x2 = 0	960.8 ± 0.8	1.448 ± 0.0007	1560.8 ± 3.4	37.6 ± 0.6	31.67 ± 0.46
293.15 K, x2 = 0.1034	968.2 ± 0.8	1.4503 ± 0.0007	1553.5 ± 3.3	38.1 ± 0.6	18.96 ± 0.32
293.15 K, x2 = 0.2008	975.3 ± 0.7	1.4523 ± 0.0007	1549.1 ± 3.3	38.5 ± 0.6	12.72 ± 0.19
293.15 K, x2 = 0.3001	982.8 ± 0.7	1.4545 ± 0.0007	1547.5 ± 3.2	39 ± 0.6	8.746 ± 0.13
293.15 K, x2 = 0.4002	989.5 ± 0.6	1.4567 ± 0.0006	1546 ± 3.2	39.5 ± 0.6	7.694 ± 0.094
293.15 K, x2 = 0.4978	996.5 ± 0.6	1.4585 ± 0.0006	1546.2 ± 3.1	40 ± 0.6	6.542 ± 0.077
293.15 K, x2 = 0.5943	1003.3 ± 0.6	1.4607 ± 0.0006	1547.4 ± 3.1	40.7 ± 0.6	5.578 ± 0.062
293.15 K, x2 = 0.7	1010.9 ± 0.5	1.4632 ± 0.0006	1550.9 ± 3	41.2 ± 0.6	4.249 ± 0.048
293.15 K, x2 = 0.7993	1018.1 ± 0.5	1.4655 ± 0.0006	1554.8 ± 3	41.5 ± 0.6	3.533 ± 0.037
293.15 K, x2 = 0.8913	1025 ± 0.5	1.4675 ± 0.0006	1559.4 ± 2.9	42.1 ± 0.6	3.098 ± 0.032
303.15 K, x2 = 0	952.8 ± 0.8	1.4442 ± 0.0007	1528.3 ± 3.4	36.9 ± 0.6	17.71 ± 0.29
303.15 K, x2 = 0.1034	960 ± 0.8	1.4464 ± 0.0007	1519.6 ± 3.3	37.3 ± 0.6	11.49 ± 0.19
303.15 K, x2 = 0.2008	966.9 ± 0.7	1.4484 ± 0.0007	1514.7 ± 3.3	37.8 ± 0.6	8.051 ± 0.12
303.15 K, x2 = 0.3001	974.2 ± 0.7	1.4505 ± 0.0007	1511.8 ± 3.2	38.3 ± 0.6	5.78 ± 0.082
303.15 K, x2 = 0.4002	980.8 ± 0.6	1.4527 ± 0.0006	1510 ± 3.1	38.8 ± 0.6	5.21 ± 0.068
303.15 K, x2 = 0.4978	987.7 ± 0.6	1.4547 ± 0.0006	1509.4 ± 3.1	39.2 ± 0.6	4.723 ± 0.058
303.15 K, x2 = 0.5943	994.5 ± 0.6	1.4567 ± 0.0006	1510.3 ± 3.1	39.5 ± 0.6	4.271 ± 0.049
303.15 K, x2 = 0.7	1002 ± 0.5	1.4591 ± 0.0006	1512.8 ± 3	40.1 ± 0.6	3.395 ± 0.038
303.15 K, x2 = 0.7993	1009.2 ± 0.5	1.4614 ± 0.0006	1516.8 ± 3	40.7 ± 0.6	2.909 ± 0.03
303.15 K, x2 = 0.8913	1016.1 ± 0.5	1.4635 ± 0.0006	1520.6 ± 2.9	41 ± 0.6	2.576 ± 0.028
313.15 K, x2 = 0	944.7 ± 0.8	1.4401 ± 0.0007	1495.7 ± 3.4	36.3 ± 0.6	10.65 ± 0.16
313.15 K, x2 = 0.1034	951.7 ± 0.8	1.4423 ± 0.0007	1486 ± 3.3	36.8 ± 0.6	7.301 ± 0.12
313.15 K, x2 = 0.2008	958.4 ± 0.7	1.4445 ± 0.0007	1480.5 ± 3.3	37.3 ± 0.6	5.308 ± 0.08
313.15 K, x2 = 0.3001	965.6 ± 0.7	1.4464 ± 0.0007	1476.6 ± 3.2	37.7 ± 0.6	4.045 ± 0.055
313.15 K, x2 = 0.4002	972.1 ± 0.6	1.4488 ± 0.0007	1474.8 ± 3.1	38.1 ± 0.6	3.725 ± 0.048
313.15 K, x2 = 0.4978	978.8 ± 0.6	1.4506 ± 0.0006	1472.8 ± 3.1	38.7 ± 0.6	3.448 ± 0.043
313.15 K, x2 = 0.5943	985.6 ± 0.6	1.4528 ± 0.0006	1473.5 ± 3.1	39 ± 0.6	3.375 ± 0.038
313.15 K, x2 = 0.7	993.1 ± 0.5	1.4548 ± 0.0006	1475.4 ± 3	39.5 ± 0.6	2.775 ± 0.03
313.15 K, x2 = 0.7993	1000.3 ± 0.5	1.4572 ± 0.0006	1479.1 ± 3	40.2 ± 0.6	2.458 ± 0.025
313.15 K, x2 = 0.8913	1007.2 ± 0.5	1.4594 ± 0.0006	1482.6 ± 2.9	40.4 ± 0.6	2.168 ± 0.023
323.15 K, x2 = 0	936.5 ± 0.8	1.436 ± 0.0007	1462.9 ± 3.4	35.9 ± 0.6	6.961 ± 0.11
323.15 K, x2 = 0.1034	943.2 ± 0.8	1.4382 ± 0.0007	1452.1 ± 3.3	36.2 ± 0.6	4.793 ± 0.077
323.15 K, x2 = 0.2008	949.8 ± 0.7	1.4401 ± 0.0007	1446 ± 3.2	36.6 ± 0.6	3.499 ± 0.053
323.15 K, x2 = 0.3001	956.9 ± 0.7	1.4421 ± 0.0007	1441.6 ± 3.2	37.1 ± 0.6	2.939 ± 0.039
323.15 K, x2 = 0.4002	963.3 ± 0.6	1.4442 ± 0.0007	1440.5 ± 3.1	37.6 ± 0.6	2.649 ± 0.036
323.15 K, x2 = 0.4978	969.9 ± 0.6	1.4464 ± 0.0007	1436.8 ± 3.1	38 ± 0.6	2.438 ± 0.031
323.15 K, x2 = 0.5943	976.7 ± 0.6	1.4482 ± 0.0007	1436.8 ± 3	38.4 ± 0.6	2.731 ± 0.033
323.15 K, x2 = 0.7	984.2 ± 0.5	1.4506 ± 0.0006	1438.4 ± 3	38.8 ± 0.6	2.317 ± 0.025
323.15 K, x2 = 0.7993	991.4 ± 0.5	1.4529 ± 0.0006	1441.7 ± 3	39.2 ± 0.6	2.073 ± 0.022
323.15 K, x2 = 0.8913	998.2 ± 0.5	1.4552 ± 0.0006	1445.1 ± 2.9	39.5 ± 0.6	1.861 ± 0.021
